In patent US20240024504A1, “SITE-SELECTIVE LYSINE ACETYLATION OF HUMAN IMMUNOGLOBULIN G AND IgG-RELATED PRODUCTS FOR IMMUNOTHERAPY” (The Chinese University of Hong Kong, priority 2022, published 2024):
Numbered stars: 1 amine (or outer) side, 2 acyl side, 3 side chain; on linkers, the order of the positions; unused ones are H or OH. Bridge positions count the residues as written; N and C are the ends. Square brackets hold non-standard residues; d marks the D form. Peptide text beside a SMILES is read from it. * marks the point of attachment. X1 = O=C(O)c1cc(NC(=S)*)ccc1-c1c2ccc(=O)cc-2oc2cc(O)ccc12; X4 = [N-]=[N+]=NCC(=O)Nc1ccc(N*)cc1; Dap = NC[C@H](N)C(=O)O; X3 = O=C(C[*:2])[*:1]; X2 = Oc1ccc(N*)cc1; βAla = NCCC(=O)O

Experiments:
[1] = system: human IgG Fc; test: Peptide-driven acetylation (labelling) of human IgG Fc, SDS-PAGE in-gel fluorescence / MALDI-TOF MS; format: biochemical; conditions: for yield of the labeled Fc: MS peak area after Glu-C digestion (F11: in-gel fluorescence, ImageJ)
Experimental: FIG. 2A-2C Kinetic details of the acetylation reaction and hydrolysis of F1. (FIG. 2A) Reactions at different peptide-to-IgG Fc ratios. Reactions were performed in PBS buffer (pH 7.4) at 37° C. for 1 h. Protein loading in each lane is 2 μg. (FIG. 2B) Reaction kinetics. Reaction condition: 4 μM IgG Fc, 24 μM F1, PBS buffer (pH 7.4), at 37° C. The reactions were quenched with 1% SDS at different time points. After conducting an SPAAC reaction with DBCO-PEG4-TAMRA, the reactions were denatured and resolved by SDS-PAGE. Product conversion was quantified based on band-shift in the SDS-PAGE image. (FIG. 2C) Hydrolysis of peptide ester (24 μM) monitored by HPLC in pH 7.4 PBS buffer at 37° C.
FIG. 27A-27B The study of IgG Fc acetylation reaction with different payloads. (FIG. 27A) A set of reactive peptides with different acyl groups tested for labeling efficiency. (FIG. 27B) The yields of IgG Fc labeled by peptides at 37° C. Reaction condition: 4 μM IgG Fc, 24 μM peptide, in PBS buffer (pH 7.4) for 2 h or in borate buffer (pH 8.5) for 15 h, respectively. […] The yields were quantified by MS analysis with in-solution Glu-C digestion of modified Fc or by in-gel fluorescent image (FIGS. 27A-27B, […]).
IgG or IgG Fc labelling reactions. Unless otherwise noted, the final concentrations of proteins were 4 μM and peptides were 24 μM. The conjugation reactions were performed in PBS buffer (pH 7.4, 137 mM NaCl, 2.7 mM KCl, 10 mM Na2HPO4, 1.8 mM KH2PO4) at 37° C. for 1 h and stopped by 1% SDS. For copper-free click chemistry, the protein-peptide reaction mixture was first incubated with 100 uM DBCO-TAMRA at room temperature for 2 h and then denatured in the presence of loading dye. After resolved by SDS-PAGE, the gel was first observed in the fluorescence channel, and then stained with Coomassie Brilliant Blue dye.
Characterization of IgG or IgG Fc modification by MALDI-TOF MS. To characterize Fc region, 5 μg protein sample was used. Firstly, Fc was treated in the presence of TCEP (20 mM) at 60° C. for 10 min. Then, the sample was acidified with TFA at a pH of <4. After prewetting, C4 ZipTip was equilibrated with water (0.1% TFA). Binding of Fc was realized by aspirating and dispensing sample 7 to 10 cycles. The tip was next washed 3 times and eluted by 5 μL 70% acetonitrile/water solution with 0.1% TFA. Now the sample was ready for MALDI-TOF MS analysis. For characterization of modified Fc region, the reaction was first quenched by acidification (For acid labile antibodies, the peptide f-F0 could be used to quench the reaction.). After coupling with DBCO-TAMRA, the sample was reduced. Then, the sample was desalted and concentrated by using the same procedure. […] Next the sample was purified by HPLC with C4 column, and peaks were collected and lyophilized. The sample was dissolved in 50% acetonitrile/water solution with 0.1% TFA and subjected to MALDI-TOF MS analysis.

[2] = target: atezolizumab (Homo sapiens, UniProt P01857, D239E/L241M/N180A); test: biochemical
atezolizumab, sequence (P01857 whole entry N180A/D239E/L241M, looked up, other chains not shown): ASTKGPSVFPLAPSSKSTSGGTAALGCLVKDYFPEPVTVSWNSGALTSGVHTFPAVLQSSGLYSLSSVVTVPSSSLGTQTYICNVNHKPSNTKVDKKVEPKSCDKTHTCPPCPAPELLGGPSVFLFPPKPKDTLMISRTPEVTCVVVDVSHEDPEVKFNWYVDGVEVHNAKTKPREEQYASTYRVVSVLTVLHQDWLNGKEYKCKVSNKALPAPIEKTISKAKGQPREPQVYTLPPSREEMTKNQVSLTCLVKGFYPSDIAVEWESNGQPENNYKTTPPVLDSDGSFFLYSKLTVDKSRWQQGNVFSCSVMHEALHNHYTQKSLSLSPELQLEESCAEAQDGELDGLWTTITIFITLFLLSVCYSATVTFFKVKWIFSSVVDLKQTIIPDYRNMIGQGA
Source text: Ligand-induced fluorescence change was used to determine the Kd value. (FIG. 13A) Dose response curve. (FIG. 13B) Capillary scans. (FIG. 13C) MST traces.
Ligand-induced fluorescence change was used to determine the Kd value. (FIG. 14A) Dose response curve. (FIG. 14B) Capillary scans. (FIG. 14C) MST traces.
Ligand-induced fluorescence change was used to determine the Kd value. (FIG. 15A) Dose response curve. (FIG. 15B) Capillary scans. (FIG. 15C) MST traces.
Microscale thermophoresis (MST) binding experiments. […] The measurements were performed in phosphate buffered saline supplemented with 0.05% Tween-20 (PBS-T). […] The measurements were performed on a NanoTemper Technologies Monolith NT.115 instrument. The settings of MST power was medium and LED power was Auto-detect.

[3] = 4 μM IgG Fc, 24 μM peptide, 37° C., PBS buffer (pH 7.4) for 2 h
[4] = 4 μM IgG Fc, 24 μM peptide, 37° C., borate buffer (pH 8.5) for 15 h

Row | Compound | yield of the labeled Fc [1, 3] | yield of the labeled Fc [1, 4] [%] | further results
1 | CC(=O)N[C@@H](CC(=O)O)C(=O)N[C@H]1CNC(=O)CSC[C@@H](C(=O)N[C@H](C(N)=O)[C@@H](C)O)NC(=O)[C@H](Cc2c[nH]c3ccccc23)NC(=O)[C@H](C(C)C)NC(=O)[C@H](CC(C)C)NC(=O)[C@H](CCC(=O)Nc2ccc(OC(=O)c3ccc(C(=O)c4ccccc4)cc3)cc2)NC(=O)CNC(=O)[C@H](CC(C)C)NC(=O)[C@H](Cc2c[nH]cn2)NC(=O)[C@H](Cc2c[nH]c3ccccc23)NC(=O)[C@H](C)NC1=O [F10] | about 5% | 26 | mass shift of Fc after reaction (MALDI-TOF MS) ([1]; 4 μM IgG Fc, 24 μM peptide, 37° C., PBS pH 7.4 2 h or borate pH 8.5 15 h): No obvious mass shift was observed
2 | CC(C)C[C@@H]1NC(=O)[C@H](Cc2c[nH]cn2)NC(=O)[C@H](Cc2c[nH]c3ccccc23)NC(=O)[C@H](C)NC(=O)[C@@H](NC(=O)[C@H](CC(=O)O)NC(=O)CCNC(=O)CNC(=S)Nc2ccc(-c3c4ccc(=O)cc-4oc4cc(O)ccc34)c(C(=O)O)c2)CNC(=O)CSC[C@@H](C(=O)N[C@H](C(N)=O)[C@@H](C)O)NC(=O)[C@H](Cc2c[nH]c3ccccc23)NC(=O)[C@H](C(C)C)NC(=O)[C@H](CC(C)C)NC(=O)[C@H](CCC(=O)Nc2ccc(NC(=O)CN=[N+]=[N-])cc2)NC(=O)CNC1=O [f-F5] (X1-G[βAla]D[Dap]AWHLGE(X4)LVWCT-NH2; linker 4-14 via X3) |  |  | Kd [2]: 2 µM
3 | CC(=O)N[C@@H](CC(=O)O)C(=O)N[C@H]1CNC(=O)CSC[C@@H](C(=O)N[C@H](C(N)=O)[C@@H](C)O)NC(=O)[C@H](Cc2c[nH]c3ccccc23)NC(=O)[C@H](C(C)C)NC(=O)[C@H](CC(C)C)NC(=O)[C@H](CCC(=O)Nc2ccc(OC(C)=O)cc2)NC(=O)CNC(=O)[C@H](CC(C)C)NC(=O)[C@H](Cc2c[nH]cn2)NC(=O)[C@H](Cc2c[nH]c3ccccc23)NC(=O)[C@H](C)NC1=O [F7] | about 41% | 90 | 
4 | CC(=O)N[C@@H](CC(=O)O)C(=O)N[C@H]1CNC(=O)CSC[C@@H](C(=O)N[C@H](C(N)=O)[C@@H](C)O)NC(=O)[C@H](Cc2c[nH]c3ccccc23)NC(=O)[C@H](C(C)C)NC(=O)[C@H](CC(C)C)NC(=O)C(CCC(=O)Nc2ccc(OC(=O)CCCC[C@@H]3SC[C@@H]4NC(=O)N[C@@H]43)cc2)NC(=O)CNC(=O)[C@H](CC(C)C)NC(=O)[C@H](Cc2c[nH]cn2)NC(=O)[C@H](Cc2c[nH]c3ccccc23)NC(=O)[C@H](C)NC1=O (stereo partly drawn) [F9] | about 18% | 73 | 
5 | CC(=O)N[C@@H](CC(=O)O)C(=O)N[C@H]1CNC(=O)CSC[C@@H](C(=O)N[C@H](C(N)=O)[C@@H](C)O)NC(=O)[C@H](Cc2c[nH]c3ccccc23)NC(=O)[C@H](C(C)C)NC(=O)[C@H](CC(C)C)NC(=O)C(CCC(=O)Nc2cccc(OC(=O)CN=[N+]=[N-])c2)NC(=O)CNC(=O)[C@H](CC(C)C)NC(=O)[C@H](Cc2c[nH]cn2)NC(=O)[C@H](Cc2c[nH]c3ccccc23)NC(=O)[C@H](C)NC1=O (stereo partly drawn) [F6] |  |  | acetylation yield compared with F1 ([1]; 3-aminophenol linker instead of 4-aminophenol): markedly decreased the acetylation yield
6 | CC(C)C[C@@H]1NC(=O)[C@H](Cc2c[nH]cn2)NC(=O)[C@H](Cc2c[nH]c3ccccc23)NC(=O)[C@H](C)NC(=O)[C@@H](NC(=O)[C@H](CC(=O)O)NC(=O)CCNC(=O)CNC(=S)Nc2ccc(-c3c4ccc(=O)cc-4oc4cc(O)ccc34)c(C(=O)O)c2)CNC(=O)CSC[C@@H](C(=O)N[C@H](C(N)=O)[C@@H](C)O)NC(=O)[C@H](Cc2c[nH]c3ccccc23)NC(=O)[C@H](C(C)C)NC(=O)[C@H](CC(C)C)NC(=O)[C@H](CCC(=O)Nc2ccc(O)cc2)NC(=O)CNC1=O [f-F4] (X1-G[βAla]D[Dap]AWHLGE(X2)LVWCT-NH2; linker 4-14 via X3) |  |  | Kd [2]: 1.5 µM
7 | C#CCCC(=O)Oc1ccc(NC(=O)CC[C@@H]2NC(=O)CNC(=O)[C@H](CC(C)C)NC(=O)[C@H](Cc3c[nH]cn3)NC(=O)[C@H](Cc3c[nH]c4ccccc34)NC(=O)[C@H](C)NC(=O)[C@@H](NC(=O)[C@H](CC(=O)O)NC(C)=O)CNC(=O)CSC[C@@H](C(=O)N[C@H](C(N)=O)[C@@H](C)O)NC(=O)[C@H](Cc3c[nH]c4ccccc34)NC(=O)[C@H](C(C)C)NC(=O)[C@H](CC(C)C)NC2=O)cc1 [F8] | about 17% | 84 | 
